Test results reported in US20240262793A1, “QUINAZOLINE COMPOUND, AND PREPARATION METHOD THEREFOR AND APPLICATION THEREOF” (SHANGHAI PHARMACEUTICALS HOLDING CO., LTD., priority 2021, published 2024).
pIC50: −log10 of the molar value.

Experiments:
Type in all cases: cell-based
IL-6 = experiment: Inhibition of IL-6 in PMA-differentiated, LPS-stimulated THP-1 cells (ELISA of cell supernatant); details: Homo sapiens, LPS 100 ng/mL
Experimental: (§1) (1) Cell culture and inoculation: A stock solution of PMA at 1 mg/mL was diluted with serum-free RP1640 medium to prepare a 100 ng/mL PMA solution. Normal cultured THP-1 cells were centrifuged, resuspended in a complete medium (RP1640 medium containing 10% FBS), and counted. The cell density was adjusted to 2×10^6 cells/mL. An equal volume of 100 ng/mL PMA solution was then added, resulting in a cell density of 1×10^6 cells/mL and a final PMA concentration of 50 ng/mL. 100 μL of the cell suspension was seeded into each well of a 96-well cell culture plate with 1×10^5 cells per well. The 96-well cell culture plate was then incubated at 37° C. in a 5% CO2 atmosphere for 24 hours.
(§2) (2) Drug treatment of cells: On the second day, LPS was added to the complete medium to adjust the final concentration to 100 ng/mL, and the compound was prepared using this LPS-containing medium. The compound was added to the appropriate cell wells according to the prepared concentration gradient. The positive control group (LPS+) was a culture medium solution containing a final concentration of 100 ng/mL LPS and 0.1% DMSO without drugs, while the negative control group (LPS-) was a culture medium solution containing 0.1% DMSO without LPS. The volume in each well was 100 μL.
(§3) (3) Test sample collection: The mixture was centrifuged at 1000 rpm for 5 minutes and the cell supernatant and cell precipitate were collected separately. The cell supernatant was used to detect TNF-α and IL-6, and the cell precipitate was collected for IL-1β detection. After collecting the cell supernatant, the remaining liquid in the wells was discarded and 100 μL of cell lysis solution (20 mM Tris 8.0; 2 mM EDTA; 0.5% Triton X-100) was added to each well for complete lysis.
(§4) (4) Sample detection: The enzyme-linked immunosorbent assay (ELISA) was used to detect the content of each cytokine. The specific steps were performed according to the instructions provided in the corresponding kit manuals. The catalog numbers of kits are as follows: • Human TNF-alpha Quantikine ELISA Kit, Catalog # STA00D • Human IL-1 beta/IL-1F2 Quantikine ELISA Kit, Catalog # SLB50 • Human IL-6 Quantikine ELISA Kit, Catalog # S6050.
(§5) (5) Data analysis: The in vitro inhibitory activity of the compounds was calculated using the following formula: […]

IL-1β = experiment: Inhibition of IL-1β in PMA-differentiated, LPS-stimulated THP-1 cells (ELISA of cell lysate); details: Homo sapiens, THP-1, Table 8, PMA 50 ng/mL, LPS 100 ng/mL
Experimental: as §1, §2, §3, §4, §5

TNF-α = experiment: Inhibition of TNF-α in PMA-differentiated, LPS-stimulated THP-1 cells (ELISA of cell supernatant); details: Homo sapiens, THP-1, Table 7, PMA 50 ng/mL, LPS 100 ng/mL
Experimental: as §1, §2, §3, §4, §5

Row | Structure (SMILES) | pIC50 (IL-6; THP-1, Table 8, PMA 50 ng/mL) | pIC50 (IL-1β) | pIC50 (TNF-α) | pIC50 (IL-6; THP-1, Table 7, PMA 50 ng/mL)
1 | O=C1NC2(CC2)C(=O)N1CCCCNc1ncnc2cc(Cl)ccc12 [Example 65, 6-(4-((7-Chloroquinazolin-4-yl)amino)butyl)-4,6-diazaspiro[2.4]heptane-5,7-dione] | 5.69 |  |  | 
2 | O=C1CNC(=O)N1CCCCCNc1ncnc2cc(F)ccc12 [Example 50, 3-(5-((7-Fluoroquinazolin-4-yl)amino)pentyl)imidazolidine-2,4-dione] | 5.40 | 3.92 |  | 
3 | CC(CCCN1C(=O)CCC1=O)Nc1ncnc2cc(Cl)ccc12 (centres unmarked) [Example 15, 1-(4-((7-Chloroquinazolin-4-yl)amino)pentyl)pyrrolidine-2,5-dione] |  |  | 4.76 | 5.91
4 | CC(CCCN1CC2(CCOCC2)C1)Nc1ncnc2cc(F)ccc12 (centres unmarked) [Example 14, N-(5-(7-Oxa-2-azaspiro[3.5]nonan-2-yl)pentan-2-yl)-7-fluoroquinazolin-4-amine] |  |  |  | 5.53
5 | O=C1NC2(CCNCC2)C(=O)N1CCCCNc1ncnc2cc(F)ccc12 [Example 60, 3-(4-((7-Fluoroquinazolin-4-yl)amino)butyl)-1,3,8-triazaspiro[4.5]decane-2,4-dione] | 4.47 |  |  | 
6 | CC(CCCN(CCO)Cc1c(F)cccc1Cl)Nc1ncnc2cc(Cl)ccc12 (centres unmarked) [Example 38] |  |  | 5.14 | 6.92
7 | CC(CCCN(CCO)Cc1ncn(C)n1)Nc1ccnc2cc(Cl)ccc12 (centres unmarked) [Example 33, 2-((4-((7-Chloroquinolin-4-yl)amino)pentyl)((1-methyl-1H-1,2,4-triazol-3-yl)methyl)amino)ethan-1-ol] |  |  |  | 5.41
8 | O=C1NC2(CCC2)C(=O)N1CCCCCNc1ncnc2cc(Cl)ccc12 [Example 70, 7-(5-((7-Chloroquinazolin-4-yl)amino)pentyl)-5,7-diazaspiro[3.4]octane-6,8-dione] | 6.34 |  |  | 
9 | CC(CCCN(CCO)Cc1ncco1)Nc1ccnc2cc(F)ccc12 (centres unmarked) [Example 41] |  |  |  | 4.52
10 | OCCN(CCCCCNc1ncnc2cc(Cl)ccc12)Cc1ncco1 [Example 46, 2-((5-((7-Chloroquinazolin-4-yl)amino)pentyl)(oxazol-2-ylmethyl)amino)ethan-1-ol] |  |  | 4.25 | 6.57
11 | C[C@H](CCCN1C(=O)CNC1=O)Nc1ncnc2cc(Cl)ccc12 [Example 74, (R)-3-(4-((7-Chloroquinazolin-4-yl)amino)pentyl)imidazolidine-2,4-dione] | 4.91 |  |  | 
12 | CC1(C)NC(=O)N(CCCCCNc2ncnc3cc(F)ccc23)C1=O [Example 53, 3-(5-((7-Fluoroquinazolin-4-yl)amino)pentyl)-5,5-dimethylimidazoline-2,4-dione] | 6.28 | 3.93 |  | 
13 | CC(CCCN(CCO)Cc1cnccn1)Nc1ccnc2cc(Cl)ccc12 (centres unmarked) [Example 32, 2-((4-((7-Chloroquinolin-4-yl)amino)pentyl)(pyrazin-2-ylmethyl)amino)ethan-1-ol] |  |  |  | 6.20
14 | O=C1NC2(CC2)C(=O)N1CCCCCNc1ncnc2cc(Cl)ccc12 [Example 68, 6-(5-((7-Chloroquinazolin-4-yl)amino)pentyl)-4,6-diazaspiro[2.4]heptane-5,7-dione] | 6.38 |  |  | 
15 | O=C1NC2(CC2)C(=O)N1CCCCNc1ncnc2cc(F)ccc12 [Example 61, 6-(4-((7-Fluoroquinazolin-4-yl)amino)butyl)-4,6-diazaspiro[2.4]heptane-5,7-dione] | 5.23 | 3.87 |  | 
16 | CC(CCCN1C(=O)CNC1=O)Nc1ccnc2cc(F)ccc12 (centres unmarked) [Example 12, 3-(4-((7-Fluoroquinolin-4-yl)amino)pentyl)imidazolidine-2,4-dione] |  |  |  | 4.69
17 | CC(CCCN1CC2(COC2)C1)Nc1ccnc2cc(Cl)ccc12 (centres unmarked) [Example 6, N-(5-(2-Oxa-6-azaspiro[3.3]heptan-6-yl)pentan-2-yl)-7-chloroquinolin-4-amine] |  |  | 4.49 | 4.62
18 | CC(CCCNCCN1CCCC1)Nc1ccnc2cc(Cl)ccc12 (centres unmarked) [Example 3, N^4-(7-Chloroquinolin-4-yl)-N^1-(2-(pyrrolidin-1-yl)ethyl)pentane-1,4-diamine] |  |  | 4.25 | 5.26
